{
  "source": "patent US20240325370A1",
  "about": "“THERAPEUTIC REGIMENS OF A DEGRADER OF BRD9” (FOGHORN THERAPEUTICS INC., priority 2021, published 2024)",
  "key": {"BRD9 [1]": {"molecular_target": "T1, BRD9 (Homo sapiens, UniProt Q9H8M2)", "T1 sequence (Q9H8M2 1-597)": "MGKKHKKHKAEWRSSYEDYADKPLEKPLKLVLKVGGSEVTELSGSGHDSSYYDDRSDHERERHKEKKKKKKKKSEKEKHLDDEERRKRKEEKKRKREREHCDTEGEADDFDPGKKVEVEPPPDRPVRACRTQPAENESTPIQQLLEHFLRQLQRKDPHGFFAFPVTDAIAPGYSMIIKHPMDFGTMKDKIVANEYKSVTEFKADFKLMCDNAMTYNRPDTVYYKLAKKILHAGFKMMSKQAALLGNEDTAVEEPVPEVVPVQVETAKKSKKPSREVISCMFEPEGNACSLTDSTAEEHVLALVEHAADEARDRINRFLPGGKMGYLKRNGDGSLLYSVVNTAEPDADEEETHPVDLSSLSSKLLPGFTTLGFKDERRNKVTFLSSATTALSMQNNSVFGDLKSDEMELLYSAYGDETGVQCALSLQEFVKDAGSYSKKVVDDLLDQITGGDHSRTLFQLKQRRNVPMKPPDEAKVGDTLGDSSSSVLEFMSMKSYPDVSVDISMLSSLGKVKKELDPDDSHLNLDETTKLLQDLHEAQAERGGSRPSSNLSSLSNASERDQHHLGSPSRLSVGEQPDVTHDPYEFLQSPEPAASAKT", "assay": "BRD9 degradation in synovial sarcoma tumor in vivo (western blot)", "parameters": "from tissue; host or cells: SYO-1 xenograft tumours in BALB/c nude or NOD SCID mice; species or system mice", "conditions": "1 mg/kg i.p. for 4 weeks; up to 168 hours after dose", "description": "Method: Mice were treated with D1, 1 mg/kg, i.p. for 4 weeks. Mice were then euthanized, and tumors were collected at 8 hours, 72 hours, and 168 hours post last dose. Tumors were lysed with 1×RIPA lysis buffer (Boston BioProducts, BP-115D) with protease and phosphatase protein inhibitor (Roche Applied Science #04906837001 & 05892791001). Equal amounts of lysate (30 ug) were loaded in 4-12% Bis-Tris Midi Protein Gels in 1×MOPS buffer; samples ran at 120 V for 120 minutes. Protein was transferred to membrane with TransBlot at 250 mA for 150 minutes, and then membranes were blocked with Odyssey blocking buffer for 1 hour at room temperature. Membranes were hybridized overnight in cold room with primary antibodies. Images acquired using Li-COR imaging system (Li-COR Biotechnology, Lincoln, Nebraska)."}, "BRD9 [2]": {"molecular_target": "T1, BRD9", "assay": "Kinetic experiments of BRD9 degradation in synovial sarcoma cell lines", "assay_type": "cell-based", "description": "Kinetic Experiments in Synovial Sarcoma Cell Lines. To assess the rate of BRD9 protein degradation following treatment with compound D1, this compound was administered at a steady dose of 15 nM over multiple time points in SYO-1 and ASKA synovial sarcoma cell lines. After cell treatment, BRD9 protein levels were determined by western blot analyses.\nCells grown in flasks to log phase growth were washed with PBS and dissociated by adding TrypLE™ Express. Two wells were allocated per sample. Plates were incubated at 37° C. with 5% CO2 overnight.\nThe next day, cells were treated with 15 nM compound D1, with the final DMSO content of 0.1% (v/v) matching the untreated control. After the designated incubation periods for each sample, as indicated in FIGS. 29A and 29B, cells were harvested, resuspended in PBS, and centrifuged at 5,000 rpm for 5 minutes. After being washed twice with PBS, the resulting cell pellets were stored at −80° C.\nCells were processed for western blot analysis as follows (see Table 15 for specific conditions). Cell lysates were prepared by resuspending thawed pellets in RIPA lysis buffer with protease and phosphatase inhibitors and DNA nuclease enzymes. […] Samples were then analysed for total protein using BCA protein quantitation assay following manufacturer's instructions. […]"}, "BRD9 [3]": {"molecular_target": "T1, BRD9", "assay": "Drug washout experiments in SYO-1, ASKA and OCI-AML2 cell lines", "conditions": "followed by washout", "protocol": "Drug Washout Experiments in SYO-1, ASKA, and OCI-AML2 Cell Lines. To assess the duration of BRD9 protein degradation and recovery post-drug washout, extensive washout experiments were conducted in three cell lines and BRD9 protein levels were assessed through western blot analyses. SYO-1 and ASKA are adherent synovial sarcoma cell lines. OCI-AML2 is an acute myeloid leukemia suspension cell line.\nAdherent cells, SYO-1 and ASKA, grown in flasks to log phase growth, were washed with PBS and dissociated by adding TrypLE™ Express.\nSYO-1 cells counted and seeded into 6-well plates at a density of 0.5×10^6 cells per well in 2 mL cell culture medium. Two wells were allocated per sample. Plates were incubated at 37° C. with 5% CO2 overnight. […] After 6 hours of incubation, 1×10^6 cells or 2 wells per treated group were harvested and frozen down at −80° C. for the 6-hour treatment sample. The remainder of the compound treated wells were washed four times by replacing all the drug-treated media with an equal volume of fresh media. After the final wash step, cells were incubated in 2 mL fresh media at 37° C. with 5% CO2 for the time points indicated. Washout steps were not performed on wells treated with 0.1% DMSO and cells were harvested at the time indicated.\nTwo wells were allocated per sample. Plates were incubated at 37° C. with 5% CO2 overnight. […]"}, "[4]": {"test_system": "SYO-1 synovial sarcoma xenograft", "assay": "Intermittent dosing schedules, IP, SYO-1 synovial sarcoma xenograft efficacy", "assay_type": "in vivo, mice", "conditions": "for Day 21 Tumor Growth (%) / Day 21 Tumor Size (mm^3): SYO-1 tumor-bearing NOD SCID mice, Mean ± SEM", "from_the_text": "The racemate, compound D1, which consists of ˜50% compound S-D1, was utilized in an SYO-1 (a synovial sarcoma xenograft) model to explore if similar efficacy is achievable with an intermittent dosing schedule. Due to technical feasibility and animal-welfare considerations, intraperitoneal (IP) administration was chosen over the IV route. […] Groups of female SYO-1 tumor-bearing NOD SCID mice (n=8/group) were intraperitoneally administered with vehicle or compound D1 for 21 days. Compound D1 was formulated as a suspension in 10% DMSO/40% PEG400/50% deionized water, volume/volume (v/v). […] To determine the level of modulation of BRD9 after each regimen, mice (n=4 mice/time-point) were euthanized and tumor samples were collected at different timepoints post-last dose (Day 21). […] BRD9 levels were assessed at 24, 72 and 168 hours (expected time points of trough plasma concentrations) for QD, BIW, and QW regimens respectively, as indicated in Table 8. Samples were analyzed using Western blot method."}, "[5]": {"conditions": "0.1 mg/kg QD × 21 days IP, Day 21"}, "[6]": {"conditions": "0.35 mg/kg BIW × 3 weeks IP, Day 21"}, "[7]": {"conditions": "0.5 mg/kg QD × 21 days IP, Day 21"}, "[8]": {"conditions": "0.7 mg/kg QW × 3 weeks IP, Day 21"}, "[9]": {"conditions": "3.5 mg/kg QW × 3 weeks IP, Day 21"}},
  "note": "Entries after “also recorded” stand apart in the source; their conditions may differ.",
  "data": [
    {"molecule": "COc1cc(-c2cn(C)c(=O)c3cnc(N4CCC4)cc23)cc(OC)c1CN1CCC(CN2CCC3(CC2)CN(c2ccc4c(c2)C(=O)N(C2CCC(=O)NC2=O)C4)C3)CC1", "note": "(racemic) [Compound D1, 3-[6-(7-[[1-([4-[6-(azetidin-1-yl)-2-methyl-1-oxo-2,7-naphthyridin-4-yl]-2,6-dimethoxyphenyl]methyl)piperidin-4-yl]methyl]-2,7-diazaspiro[3.5]nonan-2-yl)-1-oxo-3H-isoindol-2-yl]piperidine-2,6-dione]", "values": [
      {"measurement": "degradation of BRD9 in tumor", "setting": "BRD9 [1]", "value": "complete degradation of BRD9 target; also recorded: BRD9 inhibition"},
      {"measurement": "BRD9 protein degradation", "setting": "BRD9 [2]; ASKA cells, upon 30 minutes of treatment, 15 nM", "value": "nearly complete BRD9 protein degradation"},
      {"measurement": "time of treatment to markedly deplete BRD9 protein", "setting": "BRD9 [2]; SYO-1 cells, 100-fold of NanoLuc DC50 (15 nM)", "value": "≤ 2", "unit": "h"},
      {"measurement": "continued BRD9 depletion after washout", "setting": "BRD9 [3]; ASKA and OCI-AML2 cells, 15.6 nM for 6 h", "value": "reproduced"},
      {"measurement": "BRD9 depletion after washout", "setting": "BRD9 [3]; SYO-1 cells treated with 15.6 nM for 6 h", "value": "continued depletion of BRD9 up to 7 days"},
      {"measurement": "T/C (%)", "setting": "[4]; [5]", "value": 25.4, "unit": "%"},
      {"measurement": "TGI (%)", "setting": "[4]; [5]", "value": 74.6, "unit": "%"},
      {"measurement": "Day 21 Tumor Growth (%)", "setting": "[4]; 0.1 mg/kg QD × 21 days IP", "value": "535 ± 39", "unit": "%"},
      {"measurement": "Day 21 Tumor Size (mm^3)", "setting": "[4]; 0.1 mg/kg QD × 21 days IP", "value": "552 ± 59", "unit": "mm^3"},
      {"measurement": "T/C (%)", "setting": "[4]; [6]", "value": 49.0, "unit": "%"},
      {"measurement": "TGI (%)", "setting": "[4]; [6]", "value": 51.0, "unit": "%"},
      {"measurement": "Day 21 Tumor Growth (%)", "setting": "[4]; 0.35 mg/kg BIW × 3 weeks IP", "value": "1033 ± 64", "unit": "%"},
      {"measurement": "Day 21 Tumor Size (mm^3)", "setting": "[4]; 0.35 mg/kg BIW × 3 weeks IP", "value": "1179 ± 117", "unit": "mm^3"},
      {"measurement": "T/C (%)", "setting": "[4]; [7]", "value": 13.4, "unit": "%"},
      {"measurement": "TGI (%)", "setting": "[4]; [7]", "value": 86.6, "unit": "%"},
      {"measurement": "Day 21 Tumor Growth (%)", "setting": "[4]; 0.5 mg/kg QD × 21 days IP", "value": "284 ± 21", "unit": "%"},
      {"measurement": "Day 21 Tumor Size (mm^3)", "setting": "[4]; 0.5 mg/kg QD × 21 days IP", "value": "341 ± 57", "unit": "mm^3"},
      {"measurement": "T/C (%)", "setting": "[4]; [8]", "value": 45.1, "unit": "%"},
      {"measurement": "TGI (%)", "setting": "[4]; [8]", "value": 54.9, "unit": "%"},
      {"measurement": "Day 21 Tumor Growth (%)", "setting": "[4]; 0.7 mg/kg QW × 3 weeks IP", "value": "951 ± 115", "unit": "%"},
      {"measurement": "Day 21 Tumor Size (mm^3)", "setting": "[4]; 0.7 mg/kg QW × 3 weeks IP", "value": "1065 ± 107", "unit": "mm^3"},
      {"measurement": "T/C (%)", "setting": "[4]; [9]", "value": 18.0, "unit": "%"},
      {"measurement": "TGI (%)", "setting": "[4]; [9]", "value": 82.0, "unit": "%"},
      {"measurement": "Day 21 Tumor Growth (%)", "setting": "[4]; 3.5 mg/kg QW × 3 weeks IP", "value": "379 ± 43", "unit": "%"},
      {"measurement": "Day 21 Tumor Size (mm^3)", "setting": "[4]; 3.5 mg/kg QW × 3 weeks IP", "value": "449 ± 69", "unit": "mm^3"},
      {"measurement": "TGI compared to the vehicle control", "setting": "[4]; all dosing regimens, IP, Day 21", "value": "significant TGI"}
    ]}
  ]
}
